Experimental data from patent US20090264384A1, “INDOLE, BENZIMIDAZOLE, AND BENZOLACTAM BORONIC ACID COMPOUNDS, ANALOGS THEREOF AND METHODS OF USE THEREOF” (Nuada, Inc., priority 2004, published 2009).

Legend:
H3 = H3 binding assay; set-up: species or system rat
DA transporter(h) = target: T1, DA transporter(h) (Homo sapiens, UniProt Q01959); assay: DA transporter(h) binding assay
T1 construct: expressed in transfected cells; host or cells: CHO cells

CRF1 = target: T2, CRF1 (Rattus norvegicus, UniProt P35353); assay: CRF1 binding assay; details: Hill coefficient, reference compound
T2 construct: from tissue; host or cells: rat pituitary gland

Phosphodiesterase 1 = Phosphodiesterase 1 enzyme assay; type: biochemical, bovine; details: reference compound, Phosphodiesterase 1
GABA (non-selective) = type: binding, rat; details: Hill coefficient, reference compound
NK3(h) = target: T3, NK3(h) (Homo sapiens, UniProt P29371); assay: NK3(h) binding assay; details: Hill coefficient, reference compound
T3 construct: expressed in transfected cells; host or cells: CHO cells
T3 sequence (P29371 whole entry): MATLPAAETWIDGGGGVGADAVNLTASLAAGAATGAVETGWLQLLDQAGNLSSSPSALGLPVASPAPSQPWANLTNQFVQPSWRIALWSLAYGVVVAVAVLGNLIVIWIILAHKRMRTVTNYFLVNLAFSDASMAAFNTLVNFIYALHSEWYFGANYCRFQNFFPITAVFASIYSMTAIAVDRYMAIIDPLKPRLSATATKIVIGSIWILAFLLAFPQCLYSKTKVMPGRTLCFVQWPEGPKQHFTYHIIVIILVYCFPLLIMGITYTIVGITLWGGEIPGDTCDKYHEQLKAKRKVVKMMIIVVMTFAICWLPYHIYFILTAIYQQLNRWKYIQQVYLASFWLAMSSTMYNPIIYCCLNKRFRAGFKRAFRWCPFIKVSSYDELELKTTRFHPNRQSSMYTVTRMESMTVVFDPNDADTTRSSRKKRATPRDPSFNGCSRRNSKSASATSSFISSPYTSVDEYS

M (non-selective) = M (non-selective) binding assay; set-up: species or system rat
H2(h) = target: T4, H2(h) (Homo sapiens, UniProt P25021); assay: H2(h) binding assay; details: Hill coefficient, reference compound
T4 construct: expressed in transfected cells; host or cells: CHO cells
T4 sequence (P25021 whole entry): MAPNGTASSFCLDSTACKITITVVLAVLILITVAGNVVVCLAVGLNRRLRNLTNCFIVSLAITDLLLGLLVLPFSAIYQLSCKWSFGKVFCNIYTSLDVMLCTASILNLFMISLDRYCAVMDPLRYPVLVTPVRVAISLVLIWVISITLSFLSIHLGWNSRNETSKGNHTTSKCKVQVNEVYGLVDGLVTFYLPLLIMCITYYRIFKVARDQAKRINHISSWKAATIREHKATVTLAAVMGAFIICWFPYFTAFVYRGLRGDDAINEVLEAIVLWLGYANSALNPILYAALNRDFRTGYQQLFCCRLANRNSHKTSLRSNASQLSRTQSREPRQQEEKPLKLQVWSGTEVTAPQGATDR

[1] = target: Ca^2+ channel (L, diltiazem site) (benzothiazepines) (Rattus norvegicus, UniProt P22002); assay: Ca^2+ channel (L, diltiazem site) binding assay
Chain of Ca^2+ channel (L, diltiazem site) (benzothiazepines) (P22002 whole entry): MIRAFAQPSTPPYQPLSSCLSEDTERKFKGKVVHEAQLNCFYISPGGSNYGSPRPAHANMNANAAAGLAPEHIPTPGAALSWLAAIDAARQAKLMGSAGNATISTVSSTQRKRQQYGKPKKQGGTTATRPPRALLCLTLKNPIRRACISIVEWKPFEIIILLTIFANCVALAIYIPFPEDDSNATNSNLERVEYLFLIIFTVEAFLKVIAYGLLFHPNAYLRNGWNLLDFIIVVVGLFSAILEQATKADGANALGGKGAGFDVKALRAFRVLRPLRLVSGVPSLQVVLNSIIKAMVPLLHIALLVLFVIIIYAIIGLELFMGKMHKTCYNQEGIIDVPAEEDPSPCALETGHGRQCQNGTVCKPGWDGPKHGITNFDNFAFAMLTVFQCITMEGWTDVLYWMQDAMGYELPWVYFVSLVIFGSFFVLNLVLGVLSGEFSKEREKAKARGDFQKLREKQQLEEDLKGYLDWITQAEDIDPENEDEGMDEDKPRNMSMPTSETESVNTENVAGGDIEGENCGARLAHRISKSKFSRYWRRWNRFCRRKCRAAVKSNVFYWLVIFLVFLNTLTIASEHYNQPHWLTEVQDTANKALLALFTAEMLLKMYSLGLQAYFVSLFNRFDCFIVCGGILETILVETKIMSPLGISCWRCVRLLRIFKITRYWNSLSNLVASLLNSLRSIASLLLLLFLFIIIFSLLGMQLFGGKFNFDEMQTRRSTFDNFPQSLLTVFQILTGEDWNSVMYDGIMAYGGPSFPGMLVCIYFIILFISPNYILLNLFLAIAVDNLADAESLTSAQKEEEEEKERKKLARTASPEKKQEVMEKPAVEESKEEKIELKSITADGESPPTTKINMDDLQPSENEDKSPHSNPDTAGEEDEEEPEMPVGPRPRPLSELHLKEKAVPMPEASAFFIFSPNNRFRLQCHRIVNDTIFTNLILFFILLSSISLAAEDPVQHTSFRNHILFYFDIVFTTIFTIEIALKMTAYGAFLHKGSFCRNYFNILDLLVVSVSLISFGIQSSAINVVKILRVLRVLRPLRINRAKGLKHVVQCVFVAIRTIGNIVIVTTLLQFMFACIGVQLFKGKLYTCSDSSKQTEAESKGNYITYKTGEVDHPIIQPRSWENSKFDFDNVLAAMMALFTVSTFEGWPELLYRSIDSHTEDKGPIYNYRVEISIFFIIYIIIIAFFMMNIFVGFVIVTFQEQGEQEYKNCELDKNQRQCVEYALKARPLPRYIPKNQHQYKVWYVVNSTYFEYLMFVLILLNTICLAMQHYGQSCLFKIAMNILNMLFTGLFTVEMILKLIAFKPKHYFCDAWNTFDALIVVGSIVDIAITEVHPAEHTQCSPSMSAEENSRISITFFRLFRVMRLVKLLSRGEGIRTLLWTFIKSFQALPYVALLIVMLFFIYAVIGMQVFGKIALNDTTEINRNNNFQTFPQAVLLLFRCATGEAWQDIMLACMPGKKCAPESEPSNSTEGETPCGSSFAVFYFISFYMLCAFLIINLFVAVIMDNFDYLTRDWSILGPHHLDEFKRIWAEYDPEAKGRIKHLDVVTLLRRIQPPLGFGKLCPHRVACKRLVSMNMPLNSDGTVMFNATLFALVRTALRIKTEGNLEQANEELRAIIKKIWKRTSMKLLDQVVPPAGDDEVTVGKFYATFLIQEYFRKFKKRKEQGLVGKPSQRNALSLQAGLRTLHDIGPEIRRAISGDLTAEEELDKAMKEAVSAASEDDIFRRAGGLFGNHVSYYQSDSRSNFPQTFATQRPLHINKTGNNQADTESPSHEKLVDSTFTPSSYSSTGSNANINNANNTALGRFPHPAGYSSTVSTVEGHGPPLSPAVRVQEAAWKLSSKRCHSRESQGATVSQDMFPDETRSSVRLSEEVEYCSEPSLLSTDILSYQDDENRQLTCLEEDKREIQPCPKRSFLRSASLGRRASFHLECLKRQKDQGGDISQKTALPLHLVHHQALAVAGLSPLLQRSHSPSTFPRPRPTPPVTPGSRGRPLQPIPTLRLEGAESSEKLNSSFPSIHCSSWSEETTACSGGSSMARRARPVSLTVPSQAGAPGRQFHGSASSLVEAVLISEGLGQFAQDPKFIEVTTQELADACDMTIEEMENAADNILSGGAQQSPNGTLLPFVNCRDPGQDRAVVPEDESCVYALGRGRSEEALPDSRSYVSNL

Phosphodiesterase 5(h) = target: T5, Phosphodiesterase 5(h) (Homo sapiens, UniProt O76074); assay: Phosphodiesterase 5(h) enzyme assay; type: biochemical; details: Hill coefficient, Phosphodiesterase 5(h)
T5 construct: human platelets; from tissue; host or cells: human platelets

σ (non-selective) = σ (non-selective) binding assay; set-up: species or system rat
5-HT transporter(h) = target: T6, 5-HT transporter(h) (Homo sapiens, UniProt P31645); assay: 5-HT transporter(h) binding assay; details: Hill coefficient, reference compound
T6 construct: expressed in transfected cells; host or cells: HEK-293 cells

Androgen(h) (AR) = target: T7, Androgen(h) (AR) (Homo sapiens, UniProt P10275, T878A); assay: Androgen(h) (AR) binding assay
T7 construct: LNCaP cells; endogenous in cells; host or cells: LNCaP cells (cytosol)

Phosphodiesterase 3(h) = Phosphodiesterase 3(h) (Homo sapiens, UniProt Q14432); assay: Phosphodiesterase 3(h) enzyme assay; type: biochemical; details: Hill coefficient, Phosphodiesterase 3(h)
Acetylcholinesterase(h) = target: T8, Acetylcholinesterase(h) (Homo sapiens, UniProt P22303); assay: Acetylcholinesterase(h) enzyme assay; type: biochemical; details: Hill coefficient, Acetylcholinesterase(h)
T8 construct: host or cells: HEK-293 cells

[2] = target: N (neuronal) (α-BGTX-insensitive) (Rattus norvegicus, UniProt P09483+P12390); assay: N (neuronal) (α-BGTX-insensitive) binding assay; details: Hill coefficient, reference compound
Cl-channel = Cl-channel binding assay; set-up: species or system rat; details: Hill coefficient, reference compound
α1 (non-selective) = α1 (non-selective) binding assay; set-up: species or system rat
NE transporter(h) = target: T9, NE transporter(h) (Homo sapiens, UniProt P23975); assay: NE transporter(h) binding assay; details: Hill coefficient, reference compound
T9 construct: expressed in transfected cells; host or cells: MDCK cells
T9 sequence (P23975 whole entry): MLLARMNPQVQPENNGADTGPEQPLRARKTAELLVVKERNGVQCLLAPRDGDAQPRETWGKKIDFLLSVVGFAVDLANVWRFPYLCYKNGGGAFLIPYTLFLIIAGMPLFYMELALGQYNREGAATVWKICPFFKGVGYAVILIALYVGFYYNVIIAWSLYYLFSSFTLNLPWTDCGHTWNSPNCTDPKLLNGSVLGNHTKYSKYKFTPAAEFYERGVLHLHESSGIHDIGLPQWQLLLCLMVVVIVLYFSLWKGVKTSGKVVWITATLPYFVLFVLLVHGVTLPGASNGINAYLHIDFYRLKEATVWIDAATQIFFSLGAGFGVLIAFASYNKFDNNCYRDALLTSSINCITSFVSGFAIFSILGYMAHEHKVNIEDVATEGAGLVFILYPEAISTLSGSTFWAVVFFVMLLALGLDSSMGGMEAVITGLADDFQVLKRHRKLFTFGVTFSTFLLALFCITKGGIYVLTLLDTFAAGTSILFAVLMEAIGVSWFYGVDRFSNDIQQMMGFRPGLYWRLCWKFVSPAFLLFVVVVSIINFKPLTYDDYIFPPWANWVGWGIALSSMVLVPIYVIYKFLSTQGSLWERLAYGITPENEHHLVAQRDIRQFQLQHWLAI

5-HT (non-selective) = 5-HT (non-selective) binding assay; set-up: species or system rat; details: Hill coefficient, reference compound
D2S(h) = target: T10, D2S(h) (Homo sapiens, UniProt P14416); assay: biochemical; type: binding
T10 construct: expressed in transfected cells; host or cells: CHO cells
T10 sequence (P14416 1-414 isoform P14416-2): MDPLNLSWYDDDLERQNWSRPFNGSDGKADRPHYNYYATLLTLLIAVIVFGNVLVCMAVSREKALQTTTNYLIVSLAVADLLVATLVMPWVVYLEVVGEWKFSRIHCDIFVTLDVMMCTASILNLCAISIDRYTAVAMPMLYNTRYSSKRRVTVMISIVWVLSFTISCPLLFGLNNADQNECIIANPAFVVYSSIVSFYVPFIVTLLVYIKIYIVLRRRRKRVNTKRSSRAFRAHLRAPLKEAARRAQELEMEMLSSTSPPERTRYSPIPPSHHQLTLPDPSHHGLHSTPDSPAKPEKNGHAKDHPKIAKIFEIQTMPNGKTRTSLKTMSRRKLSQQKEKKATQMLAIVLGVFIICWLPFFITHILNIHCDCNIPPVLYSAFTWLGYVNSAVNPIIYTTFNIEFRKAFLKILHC

V2(h) = target: T11, V2(h) (Homo sapiens, UniProt P30518); assay: V2(h) binding assay
T11 construct: expressed in transfected cells; host or cells: CHO cells

[3] = target: Catechol-O-methyl transferase; assay: Catechol-O-methyl transferase enzyme assay; type: biochemical, porcine; details: reference compound, Catechol-O-methyl transferase
Chain of Catechol-O-methyl transferase (Q99028 whole entry): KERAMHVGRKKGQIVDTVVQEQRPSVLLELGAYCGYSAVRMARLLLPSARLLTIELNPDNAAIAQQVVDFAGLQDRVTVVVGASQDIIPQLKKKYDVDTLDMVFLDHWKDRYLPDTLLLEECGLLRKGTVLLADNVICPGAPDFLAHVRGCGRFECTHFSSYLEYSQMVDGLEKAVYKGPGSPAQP

NK2(h) = target: T12, NK2(h) (Homo sapiens, UniProt P21452); assay: NK2(h) binding assay
T12 construct: expressed in transfected cells; host or cells: CHO cells
T12 sequence (P21452 whole entry): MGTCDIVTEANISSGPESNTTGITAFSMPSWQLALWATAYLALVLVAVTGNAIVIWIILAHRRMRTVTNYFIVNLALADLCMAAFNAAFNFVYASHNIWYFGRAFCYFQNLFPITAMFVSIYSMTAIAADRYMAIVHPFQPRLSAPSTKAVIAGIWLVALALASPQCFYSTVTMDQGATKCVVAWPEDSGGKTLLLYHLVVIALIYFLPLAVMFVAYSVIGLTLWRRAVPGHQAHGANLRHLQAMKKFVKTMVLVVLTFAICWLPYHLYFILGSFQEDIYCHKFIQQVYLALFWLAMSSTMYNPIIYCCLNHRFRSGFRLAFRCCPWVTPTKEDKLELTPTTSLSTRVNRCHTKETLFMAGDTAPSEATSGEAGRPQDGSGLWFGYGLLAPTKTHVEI

NK1(h) = target: T13, NK1(h) (Homo sapiens, UniProt P25103); assay: NK1(h) binding assay; details: Hill coefficient, reference compound
T13 construct: NK1(h); U-373MG cells; [Sar^9,Met(O2)^11]-SP; Heuillet et al. (1993); endogenous in cells; host or cells: U-373MG cells

ETA(h) = target: T14, ETA(h) (Homo sapiens, UniProt P25101); assay: ETA(h) binding assay
T14 construct: expressed in transfected cells; host or cells: CHO cells

ETB(h) = target: T15, ETB(h) (Homo sapiens, UniProt P24530); assay: ETB(h) binding assay; details: Hill coefficient, reference compound
T15 construct: expressed in transfected cells; host or cells: CHO cells
T15 sequence (P24530 27-442): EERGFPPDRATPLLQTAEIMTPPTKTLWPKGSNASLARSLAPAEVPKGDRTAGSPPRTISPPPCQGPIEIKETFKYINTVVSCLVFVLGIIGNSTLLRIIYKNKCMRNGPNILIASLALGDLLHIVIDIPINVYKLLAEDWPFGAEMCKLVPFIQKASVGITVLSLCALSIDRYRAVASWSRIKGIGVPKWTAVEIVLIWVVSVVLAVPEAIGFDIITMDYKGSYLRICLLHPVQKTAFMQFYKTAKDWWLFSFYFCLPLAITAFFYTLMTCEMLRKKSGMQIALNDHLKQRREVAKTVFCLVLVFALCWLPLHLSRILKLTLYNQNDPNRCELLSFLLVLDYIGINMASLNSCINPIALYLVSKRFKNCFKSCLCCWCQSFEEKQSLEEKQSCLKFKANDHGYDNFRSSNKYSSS

Compound `C[C@@H](N)Cc1cnc[nH]1` [(R)a-Me-histamine, (R)α-Me-histamine, reference compound] has a nH (H3) of 1.0.

In the case of `c1ccc2sc(C3(N4CCCCC4)CCCCC3)cc2c1` [BTCP, reference compound], the nH (DA transporter(h)) is reported as 0.5.

In the case of `CC[C@H](C)[C@H](NC(=O)[C@@H](NC(=O)[C@H](CCC(=O)O)NC(=O)[C@H](CCSC)NC(=O)[C@H](CC(C)C)NC(=O)[C@H](CCCCN)NC(=O)[C@H](CCCNC(=N)N)NC(=O)[C@H](CC(N)=O)NC(=O)[C@H](CO)NC(=O)[C@H](Cc1c[nH]cn1)NC(=O)[C@H](C)NC(=O)[C@H](CCC(N)=O)NC(=O)[C@H](CCC(N)=O)NC(=O)[C@H](C)NC(=O)[C@H](CC(C)C)NC(=O)[C@H](CCC(N)=O)NC(=O)[C@H](CCC(=O)O)NC(=O)[C@H](C)NC(=O)[C@H](CCCNC(=N)N)NC(=O)[C@H](C)NC(=O)[C@H](CCSC)NC(=O)[C@H](CCC(=O)O)NC(=O)[C@H](CC(C)C)NC(=O)[C@@H](NC(=O)[C@H](CCC(=O)O)NC(=O)[C@H](CCCNC(=N)N)NC(=O)[C@H](CC(C)C)NC(=O)[C@H](CC(C)C)NC(=O)[C@H](Cc1c[nH]cn1)NC(=O)[C@H](Cc1ccccc1)NC(=O)[C@@H](NC(=O)[C@H](CC(C)C)NC(=O)[C@H](CC(=O)O)NC(=O)[C@H](CC(C)C)NC(=O)[C@H](CO)NC(=O)[C@@H](NC(=O)[C@@H]1CCCN1C(=O)[C@@H]1CCCN1C(=O)[C@H](CCC(=O)O)NC(=O)[C@H](CCC(=O)O)NC(=O)[C@@H](N)CO)[C@@H](C)CC)[C@@H](C)O)C(C)C)[C@@H](C)CC)C(N)=O` [CRF, reference compound], the nH (CRF1) is reported as 0.6.

With `COc1nc2c([nH]1)c(=O)n(C)c(=O)n2CC(C)C` [Example 8-methoxy-IBMX] the IC50 (Phosphodiesterase 1) was 2400 nM.

For `NCCCC(=O)O` [GAGA, GABA, reference compound], the nH (GABA (non-selective)) was 1.3.

`CC[C@H](NC(=O)c1c(C)c(-c2ccccc2)nc2ccccc12)c1ccccc1` [SB 222200, reference compound] gave a nH (NK3(h)) of 1.1.

In the case of `CN1[C@@H]2CC[C@H]1C[C@@H](OC(=O)C(CO)c1ccccc1)C2` (stereo partly drawn) [atropine, reference compound], the nH (M (non-selective)) is reported as 1.2.

`CN/C(=N/CCSCc1nc[nH]c1C)NC#N` [cimetidine, reference compound] gave a nH (H2(h)) of 0.9.

For `COc1ccc([C@@H]2Sc3ccccc3N(CCN(C)C)C(=O)[C@@H]2OC(C)=O)cc1` [diltiazem, reference compound], the nH [1] was 0.9.

`OCCN(CCO)c1nc(N2CCCCC2)c2nc(N(CCO)CCO)nc(N3CCCCC3)c2n1` [dipyridamole] showed a nH (Phosphodiesterase 5(h)) of 1.5.

For `O=C(CCCN1CCC(O)(c2ccc(Cl)cc2)CC1)c1ccc(F)cc1` [haloperidol, reference compound], the nH (σ (non-selective)) was 0.6.

`CN(C)CCCN1c2ccccc2CCc2ccccc21` [imipramine, reference compound] was tested, and the nH (5-HT transporter(h)) was 1.0.

`C[C@]1(O)CC[C@H]2[C@@H]3CCC4=CC(=O)CCC4=C3C=C[C@@]21C` [methyltrienolone, reference compound] showed a nH (Androgen(h) (AR)) of 1.5.

`Cc1[nH]c(=O)c(C#N)cc1-c1ccncc1` [milrinone] gave a nH (Phosphodiesterase 3(h)) of 0.8.

`CN(C)C(=O)Oc1cccc([N+](C)(C)C)c1` [neostigmine] was tested, and the nH (Acetylcholinesterase(h)) was 1.5.

In the case of `CN1CCCC1c1cccnc1` (stereo not drawn) [nicotine, reference compound], the nH [2] is reported as 1.1.

Compound `C=C(C)[C@@H]1[C@H]2OC(=O)[C@@H]1[C@]1(O)C[C@H]3O[C@]34C(=O)O[C@H]2[C@]14C` [picrotoxinin, reference compound] has a nH (Cl-channel) of 0.9.

In the case of `COc1cc2nc(N3CCN(C(=O)c4ccco4)CC3)nc(N)c2cc1OC` [prazosin, reference compound], the nH (α1 (non-selective)) is reported as 1.6.

In the case of `CNCCCC1c2ccccc2C=Cc2ccccc21` [protriptyline, reference compound], the nH (NE transporter(h)) is reported as 1.7.

Compound `NCCc1c[nH]c2ccc(O)cc12` [serotonin, reference compound] has a nH (5-HT (non-selective)) of 0.9.

(+)butaclamol [reference compound] showed a nH (D2S(h)) of 1.2.

AVP [reference compound] showed a nH (V2(h)) of 0.9.

Ro 41-0960 gave an IC50 [3] of 51 nM.

Work on [N1e^10]-NKA(4-10) [reference compound] yielded a nH (NK2(h)) of 0.7.

Compound “[Sar^9,Met(O2)^11]-SP [reference compound]” has a nH (NK1(h)) of 0.9.

For “endothelin-1 [endothelia-1, reference compound]”, the nH (ETA(h)) was 1.1.

“endothelin-3 [endothelia-3, reference compound]” showed a nH (ETB(h)) of 2.4.
